Laboratory results taken from article PMC9414972, “α-Glucosidase and α-Amylase Inhibitory Potentials of Quinoline–1,3,4-oxadiazole Conjugates Bearing 1,2,3-Triazole with Antioxidant Activity, Kinetic Studies, and Computational Validation” (Pharmaceuticals, 2022).
Like-named read-outs stand apart in the source and are kept apart here.

How the values were obtained:
[1] = Nitric oxide (NO) scavenging activity
Procedure: The screening of the present compound series for NO radical scavenging activity (Table 2) identified excellent NO scavengers.
The antioxidant capacity of the compounds to scavenge nitric oxide radicals was determined using a modified version of the protocol by Kurian et al.. Briefly, 250 μL of sodium nitroprusside (10 mM) prepared in sodium phosphate buffer (pH 7.4) was added to 500 μL of the compound solution (62.5–500 μM) or distilled water (control). The resulting solution was incubated at 37 °C for 2 h. Then, 250 μL of Griess reagent was added to the reaction mixture before the absorbance was measured at 546 nm. The nitric oxide scavenging activity of the compounds was calculated with the formula: Nitric oxide scavenging (%)=1−Absorbance of compound/Absorbance of control×100

α-glucosidase = target: T1, α-glucosidase (Saccharomyces cerevisiae, UniProt P38158); assay: biochemical
T1 construct: purchased Merck
Procedure: The α-glucosidase inhibitory activity was evaluated using a previous method with slight modifications.

[2] = Ferric reducing antioxidant power (FRAP)
Procedure: FRAP is a ferric (Fe^3+) to ferrous (Fe^2+) ions reduction assay that measures a compound’s electron-donating capacity, i.e., the antioxidant’s reducing power.
The mixture was incubated at 50 °C for 20 min, followed by acidification with 100 μL trichloroacetic acid (10%). After centrifugation at 3500 rpm for 10 min, 200 μL of the supernatant was transferred into another test tube containing 200 μL of distilled water and 0.8 mL of FeCl3 (0.1%). Finally, the absorbance was read at 700 nm, and the total reductive antioxidant power was calculated thus: Ferric reducing antioxidant power (%)=Absorbance of compound/Absorbance of 500µM gallic acid×100

[3] = DPPH radical scavenging activity
Procedure: The DPPH assay is used conventionally to quantify a compound’s ability to trap free radicals.
The compounds were evaluated for their ability to scavenge stable DPPH radicals, using a modification of the method by Turkoglu et al..

[4] = target: T2, porcine pancreatic amylase (Sus scrofa, UniProt P00690); assay: α-Amylase inhibitory activity (starch/DNS); assay type: biochemical
T2 construct: purchased Merck
T2 sequence (P00690 16-511): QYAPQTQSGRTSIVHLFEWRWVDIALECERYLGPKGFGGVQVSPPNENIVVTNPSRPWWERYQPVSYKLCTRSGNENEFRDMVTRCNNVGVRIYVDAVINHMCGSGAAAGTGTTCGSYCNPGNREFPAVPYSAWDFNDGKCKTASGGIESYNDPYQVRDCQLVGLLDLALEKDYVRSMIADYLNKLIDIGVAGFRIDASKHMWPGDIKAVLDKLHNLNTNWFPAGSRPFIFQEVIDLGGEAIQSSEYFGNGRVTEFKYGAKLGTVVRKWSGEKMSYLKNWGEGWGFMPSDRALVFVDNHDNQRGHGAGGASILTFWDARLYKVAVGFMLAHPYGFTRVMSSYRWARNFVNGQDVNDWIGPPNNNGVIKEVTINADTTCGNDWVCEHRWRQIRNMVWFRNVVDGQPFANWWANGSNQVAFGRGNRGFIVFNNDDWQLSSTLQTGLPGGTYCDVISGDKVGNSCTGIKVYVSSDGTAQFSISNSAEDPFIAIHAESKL
Procedure: α-Amylase inhibitory activity was determined according to Ibitoye et al. with slight modifications. […] The reaction in the mixture was terminated with a 1 mL dinitrosalicylate reagent before boiling for 10 min. The cooled mixture was diluted with 5 mL distilled water, and the absorbance was read at 540 nm. The inhibitory activity was calculated using the formula below: % Inhibition=1−Absorbance of compound/Absorbance of control×100

[5] = nitric oxide radical scavenging, 37 °C, 2 h
[6] = pNPG substrate, pH 6.8, 37 °C, read-out: IC50 α-Glucosidase
[7] = ferric reducing antioxidant power
[8] = DPPH radical scavenging, 30 min, 25 °C
[9] = porcine pancreatic amylase, starch, pH 6.9, 25 °C, read-out: IC50 α-Amylase

T1 sequence (P38158 whole entry): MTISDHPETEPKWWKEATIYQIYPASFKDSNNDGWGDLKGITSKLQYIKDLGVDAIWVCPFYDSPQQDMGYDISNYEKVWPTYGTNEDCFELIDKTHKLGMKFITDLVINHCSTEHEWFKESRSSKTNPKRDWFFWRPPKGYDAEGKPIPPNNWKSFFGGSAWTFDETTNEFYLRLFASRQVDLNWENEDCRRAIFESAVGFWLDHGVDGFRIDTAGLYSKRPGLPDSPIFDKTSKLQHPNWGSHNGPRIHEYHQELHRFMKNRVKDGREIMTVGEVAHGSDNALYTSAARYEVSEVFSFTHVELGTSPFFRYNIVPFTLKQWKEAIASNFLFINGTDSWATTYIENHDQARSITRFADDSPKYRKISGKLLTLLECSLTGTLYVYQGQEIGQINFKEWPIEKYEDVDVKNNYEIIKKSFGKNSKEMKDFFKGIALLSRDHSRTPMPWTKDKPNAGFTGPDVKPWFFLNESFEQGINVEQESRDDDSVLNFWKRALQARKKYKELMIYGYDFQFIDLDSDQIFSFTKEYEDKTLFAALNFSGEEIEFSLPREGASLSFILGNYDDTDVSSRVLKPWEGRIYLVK

| SMILES | IC50 [1, 5] | IC50 (α-glucosidase; [6]) | IC50 [2, 7] | IC50 [3, 8] | melting point | IC50 [4, 9] | IC50 (α-glucosidase) | IC50 [1] | IC50 [2] | IC50 [3] | IC50 [4] |
| --- | --- | --- | --- | --- | --- | --- | --- | --- | --- | --- | --- |
| CCSc1nnc(COc2cccc3cccnc23)o1 [4a, 2-(Ethylthio)-5-[(quinolin-8-yloxy)methyl]-1,3,4-oxadiazole] | 2.67 µM | 41.6 µM | > 500 µM | 70.9 µM | 80.7 to 83.1 °C | > 500 µM | – | – | – | – | – |
| CCCCSc1nnc(COc2cccc3cccnc23)o1 [4c, 2-(Butylthio)-5-[(quinolin-8-yloxy)methyl]-1,3,4-oxadiazole] | > 500 µM | 41.4 µM | > 500 µM | 79 µM | 88.3 to 93.5 °C | > 500 µM | – | – | – | – | – |
| CCCCCSc1nnc(COc2cccc3cccnc23)o1 [4d, 2-(Pentylthio)-5-[(quinolin-8-yloxy)methyl]-1,3,4-oxadiazole] | 457 µM | 46.7 µM | > 500 µM | 82.9 µM | 84.6 to 90.1 °C | > 500 µM | – | – | – | – | – |
| CCCCCCSc1nnc(COc2cccc3cccnc23)o1 [4e, 2-(Hexylthio)-5-[(quinolin-8-yloxy)methyl]-1,3,4-oxadiazole] | > 500 µM | 48.1 µM | > 500 µM | 75.7 µM | – | 210 µM | – | – | – | – | – |
| C=CCSc1nnc(COc2cccc3cccnc23)o1 [4f, 2-(Allylthio)-5-[(quinolin-8-yloxy)methyl]-1,3,4-oxadiazole] | > 500 µM | 34.5 µM | > 500 µM | 72.1 µM | – | > 500 µM | – | – | – | – | – |
| CC(C)=CCSc1nnc(COc2cccc3cccnc23)o1 [4g, 2-[(3-Methylbut-2-en-1-yl)thio]-5-[(quinolin-8-yloxy)methyl]-1,3,4-oxadiazole] | > 500 µM | 34.1 µM | > 500 µM | 86.4 µM | – | > 500 µM | – | – | – | – | – |
| BrCCSc1nnc(COc2cccc3cccnc23)o1 [4h, 2-[(2-Bromoethyl)thio]-5-[(quinolin-8-yloxy)methyl]-1,3,4-oxadiazole] | > 500 µM | – | > 500 µM | 75.4 µM | – | – | – | – | – | – | – |
| Brc1ccc(CSc2nnc(COc3cccc4cccnc34)o2)cc1 [4m, 2-[(4-Bromobenzyl)thio]-5-[(quinolin-8-yloxy)methyl]-1,3,4-oxadiazole] | > 500 µM | – | > 500 µM | 85.2 µM | 120.9 to 124.1 °C | > 500 µM | 28.3 µM | – | – | – | – |
| O=[N+]([O-])c1ccc(CSc2nnc(COc3cccc4cccnc34)o2)cc1 [4n, 2-[(4-Nitrobenzyl)thio]-5-[(quinolin-8-yloxy)methyl]-1,3,4-oxadiazole] | > 500 µM | 32.8 µM | > 500 µM | 77.2 µM | 156.6 to 160.1 °C | > 500 µM | – | – | – | – | – |
| Fc1cccc(CSc2nnc(COc3cccc4cccnc34)o2)c1 [4o, 2-[(3-Fluorobenzyl)thio]-5-[(quinolin-8-yloxy)methyl]-1,3,4-oxadiazole] | > 500 µM | 48.8 µM | > 500 µM | 76.9 µM | – | > 500 µM | – | – | – | – | – |
| Clc1cccc(CSc2nnc(COc3cccc4cccnc34)o2)c1 [4p, 2-[(3-Chlorobenzyl)thio]-5-[(quinolin-8-yloxy)methyl]-1,3,4-oxadiazole] | > 500 µM | 29.6 µM | > 500 µM | 68 µM | – | > 500 µM | – | – | – | – | – |
| Brc1cccc(CSc2nnc(COc3cccc4cccnc34)o2)c1 [4q, 2-[(3-Bromobenzyl)thio]-5-[(quinolin-8-yloxy)methyl]-1,3,4-oxadiazole] | > 500 µM | 29.6 µM | > 500 µM | 78.6 µM | – | 427 µM | – | – | – | – | – |
| Fc1ccc(CSc2nnc(COc3cccc4cccnc34)o2)c(F)c1 [4r, 2-[(2,4-Difluorobenzyl)thio]-5-[(quinolin-8-yloxy)methyl]-1,3,4-oxadiazole] | > 500 µM | 28.2 µM | > 500 µM | 64.5 µM | 98.7 to 105.2 °C | > 500 µM | – | – | – | – | – |
| Fc1ccc(CSc2nnc(COc3cccc4cccnc34)o2)cc1F [4s, 2-[(3,4-Difluorobenzyl)thio]-5-[(quinolin-8-yloxy)methyl]-1,3,4-oxadiazole] | > 500 µM | 35.4 µM | > 500 µM | 87.2 µM | 98.8 to 101.2 °C | > 500 µM | – | – | – | – | – |
| Clc1ccc(CSc2nnc(COc3cccc4cccnc34)o2)c(Cl)c1 [4t, 2-[(2,4-Dichlorobenzyl)thio]-5-[(quinolin-8-yloxy)methyl]-1,3,4-oxadiazole] | > 500 µM | 27.7 µM | > 500 µM | 94 µM | 116.7 to 119.7 °C | > 500 µM | – | – | – | – | – |
| Oc1cccc2cccnc12 [8-HQ, 8-hydroxyquinoline, reference compound] | – | – | – | – | – | – | 29.3 µM | 184 µM | > 500 µM | 51.8 µM | > 500 µM |
| CCCCCn1cc(CSc2nnc(COc3cccc4cccnc34)o2)nn1 [12a] | > 500 µM | 35.2 µM | > 500 µM | 90 µM | 90 to 94 °C | > 500 µM | – | – | – | – | – |
| CCCCCCn1cc(CSc2nnc(COc3cccc4cccnc34)o2)nn1 [12b, 2-{[(1-Hexyl-1H-1,2,3-triazol-4-yl)methyl]thio}-5-[(quinolin-8-yloxy)methyl]-1,3,4-oxadiazole] | > 500 µM | 36.7 µM | > 500 µM | 80 µM | – | > 500 µM | – | – | – | – | – |
| c1ccc(Cn2cc(CSc3nnc(COc4cccc5cccnc45)o3)nn2)cc1 [12c, 2-{[(1-Benzyl-1H-1,2,3-triazol-4-yl)methyl]thio}-5-[(quinolin-8-yloxy)methyl]-1,3,4-oxadiazole] | > 500 µM | 46.9 µM | > 500 µM | 80.2 µM | 68 to 71 °C | > 500 µM | – | – | – | – | – |
| Clc1ccc(Cn2cc(CSc3nnc(COc4cccc5cccnc45)o3)nn2)cc1 [12d, 2-{[(1-(4-Chlorobenzyl)-1H-1,2,3-triazol-4-yl)methyl]thio}-5-[(quinolin-8-yloxy)methyl]-1,3,4-oxadiazole] | > 500 µM | 38.1 µM | > 500 µM | 80.4 µM | 92 to 96 °C | > 500 µM | – | – | – | – | – |
| Fc1ccc(Cn2cc(CSc3nnc(COc4cccc5cccnc45)o3)nn2)cc1 [12e, 2-{[(1-(4-Fluorobenzyl)-1H-1,2,3-triazol-4-yl)methyl]thio}-5-[(quinolin-8-yloxy)methyl]-1,3,4-oxadiazole] | > 500 µM | 39.3 µM | > 500 µM | 92.8 µM | 96 to 101 °C | > 500 µM | – | – | – | – | – |
| Fc1ccc(Cn2cc(CSc3nnc(COc4cccc5cccnc45)o3)nn2)cc1F [12j, 2-{[(1-(3,4-Difluorobenzyl)-1H-1,2,3-triazol-4-yl)methyl]thio}-5-[(quinolin-8-yloxy)methyl]-1,3,4-oxadiazole] | > 500 µM | 59 µM | > 500 µM | 102 µM | – | > 500 µM | – | – | – | – | – |
| O=C1O[C@H]([C@@H](O)CO)C(O)=C1O [Ascorbic acid, reference compound] | – | – | 103 µM | – | – | – | – | – | – | – | – |
| O=C(O)c1cc(O)c(O)c(O)c1 [Gallic acid, reference compound] | 729 µM | – | 17.9 µM | 26.6 µM | – | – | – | – | – | – | – |
| Sc1nnc(COc2cccc3cccnc23)o1 [compound 3, 5-[(Quinolin-8-yloxy)methyl]-1,3,4-oxadiazole-2-thiol] | 464 µM | 34.7 µM | > 500 µM | 25.2 µM | – | > 500 µM | – | – | – | – | – |
